Measurements from PubChem BioAssay AID248 (DTP/NCI, 2004).
Values joined by “and” are separate entries in the source; they are usually repeats but may differ in a detail not shown here. Identical values can stand only once. Toxic doses and inconclusive results are not listed. Cut-off read from the data, not from the text of the source: active = T/C of 150% or more; inactive = T/C below 125%.

System: L1210 leukemia ip in BDF1 mice, survival T/C
Test: NCI In Vivo Anticancer Drug Screen. Data for tumor model L1210 Leukemia (intraperitoneal) in B6D2F1 (BDF1) mice
Settings: endpoint: mean survival time, higher = longer survival
Outline: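 In this screen, tumor-bearing mice given compound are compared to those given vehicle, and their survival values are reported as a treated-to-control quotient.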

[1] = dose: 100.0 mg/kg/injection, schedule: Q01DX001 (ip), vehicle: saline
[2] = dose: 200.0 mg/kg/injection, schedule: Q01DX001 (ip), vehicle: saline
[3] = dose: 400.0 mg/kg/injection, schedule: Q01DX001 (ip), vehicle: saline
[4] = dose: 100.0 mg/kg/injection, schedule: Q04DX002 (ip), vehicle: Klucel (hydroxypropylcellulose) (HPC)
[5] = dose: 200.0 mg/kg/injection, schedule: Q04DX002 (ip), vehicle: Klucel (hydroxypropylcellulose) (HPC)
[6] = dose: 400.0 mg/kg/injection, schedule: Q04DX002 (ip), vehicle: Klucel (hydroxypropylcellulose) (HPC)
[7] = dose: 100.0 mg/kg/injection, schedule: Q01DX001 (ip), vehicle: carboxymethylcellulose (CMC)
[8] = dose: 200.0 mg/kg/injection, schedule: Q01DX001 (ip), vehicle: carboxymethylcellulose (CMC)
[9] = dose: 400.0 mg/kg/injection, schedule: Q01DX001 (ip), vehicle: carboxymethylcellulose (CMC)
[10] = dose: 25.0 mg/kg/injection, schedule: Q01DX009 (ip), vehicle: other
[11] = dose: 100.0 mg/kg/injection, schedule: Q04DX003 (ip), vehicle: Klucel (hydroxypropylcellulose) (HPC)
[12] = dose: 200.0 mg/kg/injection, schedule: Q04DX003 (ip), vehicle: Klucel (hydroxypropylcellulose) (HPC)
[13] = dose: 400.0 mg/kg/injection, schedule: Q04DX003 (ip), vehicle: Klucel (hydroxypropylcellulose) (HPC)
[14] = dose: 25.0 mg/kg/injection, schedule: Q01DX009 (ip), vehicle: saline
[15] = dose: 50.0 mg/kg/injection, schedule: Q01DX009 (ip), vehicle: saline
[16] = dose: 100.0 mg/kg/injection, schedule: Q01DX009 (ip), vehicle: saline
[17] = dose: 100.0 mg/kg/injection, schedule: Q01DX001 (ip), vehicle: acetone
[18] = dose: 100.0 mg/kg/injection, schedule: Q01DX009 (ip), vehicle: acetone
[19] = dose: 100.0 mg/kg/injection, schedule: Q04DX003 (ip), vehicle: saline
[20] = dose: 200.0 mg/kg/injection, schedule: Q01DX001 (ip), vehicle: acetone
[21] = dose: 200.0 mg/kg/injection, schedule: Q01DX009 (ip), vehicle: acetone
[22] = dose: 200.0 mg/kg/injection, schedule: Q04DX003 (ip), vehicle: saline
[23] = dose: 400.0 mg/kg/injection, schedule: Q04DX003 (ip), vehicle: saline
[24] = dose: 50.0 mg/kg/injection, schedule: Q01DX001 (ip), vehicle: saline

Measured: T/C

CC(=O)NC1C(OC(C)=O)OC(COC(c2ccccc2)(c2ccccc2)c2ccccc2)C(OC(C)=O)C1OC(C)=O (centres undefined)
inactive: [1] 108 % of control | [2] 96 % of control | [3] 96 % of control

CC(=O)OC(C1SCCCS1)C1CC2C=CC1C2 (centres undefined)
inactive: [4] 115 % of control | [5] 91 % of control | [6] 105 % of control

CC(C)(C)C1CCC2(CC1)CC(=O)N(N1CCCCCC1)C(=O)C2
inactive: dose: 50.0 mg/kg/injection, schedule: Q01DX001 (ip), vehicle: carboxymethylcellulose (CMC) 95 % of control | [7] 101 % of control | [8] 95 % of control | [9] 104 % of control

NC(=S)N/N=C(\c1ccc(Br)cc1)C1CC1
inactive: dose: 2.0 mg/kg/injection, schedule: Q01DX Z (ip), vehicle: carboxymethylcellulose (CMC) 105 % of control | dose: 4.0 mg/kg/injection, schedule: Q01DX Z (ip), vehicle: carboxymethylcellulose (CMC) 102 % of control | dose: 4.0 mg/kg/injection, schedule: Q01DX Z (oral), vehicle: carboxymethylcellulose (CMC) 115 % of control | dose: 8.0 mg/kg/injection, schedule: Q01DX Z (ip), vehicle: carboxymethylcellulose (CMC) 113 % of control | dose: 8.0 mg/kg/injection, schedule: Q01DX Z (oral), vehicle: carboxymethylcellulose (CMC) 115 % of control | dose: 16.0 mg/kg/injection, schedule: Q01DX Z (oral), vehicle: carboxymethylcellulose (CMC) 107 % of control

CCOC(=O)Nc1cc(NC(c2ccc(Cl)cc2)c2ccc(Cl)cc2)c2[nH]cnc2n1
inactive: [10] 96 % of control | dose: 50.0 mg/kg/injection, schedule: Q01DX009 (ip), vehicle: other 111 % of control

CC(=O)Nc1ccc(C=O)s1
inactive: [7] 97 % of control | [8] 94 % of control | [9] 103 % of control

O=C(Nc1cccnc1)Nc1ccc(Cl)c(Cl)c1
inactive: [11] 98 % of control | [12] 93 % of control | [13] 94 % of control

CCCCCCOC(=O)c1cccc2c1-c1ccccc1C2=O
inactive: [7] 93 % of control | [8] 93 % of control | [9] 98 % of control

CN1CCN(C(=O)Nc2cccc(Cl)c2Cl)CC1
inactive: [14] 92 % of control | [15] 87 % of control | [16] 97 % of control and 102 % of control

N#CCCNC(=O)c1ccccc1
inactive: [17] 107 % of control | [18] 90 % of control | [19] 103 % of control | [20] 102 % of control | [21] 92 % of control | [22] 94 % of control | dose: 400.0 mg/kg/injection, schedule: Q01DX001 (ip), vehicle: acetone 102 % of control | dose: 400.0 mg/kg/injection, schedule: Q01DX009 (ip), vehicle: acetone 90 % of control | [23] 101 % of control

Cc1nc(Cl)cc(Cl)n1
inactive: [11] 90 % of control | [12] 90 % of control | [13] 97 % of control

N#CC(C#N)=Cc1cccc(OCc2ccccc2)c1
inactive: dose: 100.0 mg/kg/injection, schedule: Q01DX009 (ip), vehicle: Klucel (hydroxypropylcellulose) (HPC) 100 % of control | dose: 200.0 mg/kg/injection, schedule: Q01DX009 (ip), vehicle: Klucel (hydroxypropylcellulose) (HPC) 91 % of control | dose: 400.0 mg/kg/injection, schedule: Q01DX009 (ip), vehicle: Klucel (hydroxypropylcellulose) (HPC) 91 % of control

O=c1[nH]nnc2[nH]ncc12
inactive: dose: 100.0 mg/kg/injection, schedule: Q04DX003 (ip), vehicle: saline with Tween-80 102 % of control | dose: 200.0 mg/kg/injection, schedule: Q04DX003 (ip), vehicle: saline with Tween-80 104 % of control | dose: 400.0 mg/kg/injection, schedule: Q04DX003 (ip), vehicle: saline with Tween-80 98 % of control

N#CC(Cc1ccccc1)(c1ccccc1)c1ccccc1
inactive: [24] 112 % of control | [1] 114 % of control | [2] 89 % of control | [3] 97 % of control

Cc1ccccc1CC#N
inactive: dose: 6.25 mg/kg/injection, schedule: Q01DX009 (ip), vehicle: saline 108 % of control | dose: 12.5 mg/kg/injection, schedule: Q01DX009 (ip), vehicle: saline 108 % of control | [14] 101 % of control

CSCCC(NC(C)=O)C(=O)O (centres undefined)
inactive: [16] 99 % of control | [19] 94 % of control | dose: 200.0 mg/kg/injection, schedule: Q01DX009 (ip), vehicle: saline 86 % of control | [22] 91 % of control | dose: 400.0 mg/kg/injection, schedule: Q01DX009 (ip), vehicle: saline 96 % of control | [23] 91 % of control

O=C(NC(=O)c1cccc(Br)c1)Nc1ccccc1
inactive: dose: 264.0 mg/kg/injection, schedule: Q01DX001 (ip), vehicle: carboxymethylcellulose (CMC) 92 % of control | [9] 96 % of control | dose: 600.0 mg/kg/injection, schedule: Q01DX001 (ip), vehicle: carboxymethylcellulose (CMC) 90 % of control

CC(=O)OC(C)C(C)Br (centres undefined)
inactive: dose: 50.0 mg/kg/injection, schedule: Q04DX002 (ip), vehicle: Klucel (hydroxypropylcellulose) (HPC) 93 % of control | [17] 89 % of control | [4] 100 % of control | [20] 92 % of control

CN=C1CN(O)C(c2ccccc2)=c2cc(Cl)ccc2=N1
inactive: dose: 25.0 mg/kg/injection, schedule: Q01DX009 (ip), vehicle: acetone 96 % of control | dose: 25.0 mg/kg/injection, schedule: Q04DX003 (ip), vehicle: saline 97 % of control | dose: 50.0 mg/kg/injection, schedule: Q01DX009 (ip), vehicle: acetone 90 % of control | dose: 50.0 mg/kg/injection, schedule: Q04DX003 (ip), vehicle: saline 97 % of control | [1] 92 % of control | [18] 102 % of control | [19] 92 % of control | [2] 96 % of control | [21] 97 % of control | [22] 97 % of control

Cc1ccc2nc(CCl)[nH]c2c1
inactive: [24] 119 % of control | [1] 113 % of control | [2] 107 % of control

Cc1ccc([N+](=O)[O-])cc1NC(=O)Nc1ccc(Nc2ccccc2)cc1
inactive: [4] 86 % of control | [5] 86 % of control | [6] 97 % of control

CCC(c1ccc2cc(OC)ccc2c1)C(C)(C)C(=O)F (centres undefined)
inactive: [14] 94 % of control | dose: 31.3 mg/kg/injection, schedule: Q01DX Z (sc), vehicle: steriod suspending solution 107 % of control | dose: 50.0 mg/kg/injection, schedule: Q01DX001 (ip), vehicle: steriod suspending solution 98 % of control | [15] 100 % of control | dose: 62.5 mg/kg/injection, schedule: Q01DX Z (sc), vehicle: steriod suspending solution 110 % of control | dose: 100.0 mg/kg/injection, schedule: Q01DX001 (ip), vehicle: steriod suspending solution 96 % of control | dose: 100.0 mg/kg/injection, schedule: Q04DX003 (ip), vehicle: acetone 94 % of control | dose: 125.0 mg/kg/injection, schedule: Q01DX Z (sc), vehicle: steriod suspending solution 108 % of control | dose: 250.0 mg/kg/injection, schedule: Q01DX Z (sc), vehicle: steriod suspending solution 108 % of control

Clc1nc(I)c(Cl)c(I)n1
inactive: dose: 6.25 mg/kg/injection, schedule: Q01DX009 (ip), vehicle: other 119 % of control | dose: 12.5 mg/kg/injection, schedule: Q01DX009 (ip), vehicle: other 101 % of control | [10] 94 % of control

CCN(CC)CCN(C)C(=O)C(=O)c1ccccc1
inactive: dose: 75.0 mg/kg/injection, schedule: Q01DX001 (ip), vehicle: saline 98 % of control | dose: 150.0 mg/kg/injection, schedule: Q01DX001 (ip), vehicle: saline 101 % of control

CCC(=O)c1c(C)c(C)cc2ccccc12
inactive: dose: 100.0 mg/kg/injection, schedule: Q01DX009 (ip), vehicle: other 97 % of control | dose: 200.0 mg/kg/injection, schedule: Q01DX009 (ip), vehicle: other 95 % of control | dose: 400.0 mg/kg/injection, schedule: Q01DX009 (ip), vehicle: other 108 % of control

COC1OC2COC(c3ccccc3)OC2C(NC(C)=O)C1OS(C)(=O)=O (centres undefined)
inactive: [4] 101 % of control | [5] 101 % of control | [6] 105 % of control
